{"source": "patent US4200638A", "about": "“Indole derivatives and therapeutically acting drugs” (Omnium Chimique Societe Anonyme, priority 1977, dated 1980)", "key": {"[1]": {"tested_on": "Charles River stock mice", "test": "Hypobaric anoxia test on mice (survival time)", "format": "in vivo", "procedure": "Charles River stock mice of the same sex, weighting about 20±2 g are shared into three lots of 10 animals each. The lots 1 and 2 comprise treated animals, i.e. those having received either a substance to be tested. The third lot comprises control animals.\nThe compounds examined are administered p.o. 30 minutes before the experiment.\nThe animals are placed in an atmosphere improverished in oxygen by creating a partial vacuum (190 mm Hg, corresponding to 5.25% oxygen), in about 30 seconds.\nThe survival time of the mice is measured with a chronometer. Said time is increased by the agents capable of enhancing oxygenation of tissues and more particularly brain oxygenation.\nUnder the above described conditions, the dose which provides a 50% increase of the average survival time of the animals may be expressed as the 50% effective dose (here abbreviated as ED50)."}, "[2]": {"tested_on": "femoral flow rate", "test": "Femoral flow rate in anesthetized dogs", "format": "in vivo", "conditions": "5.5 mg/kg i.v.; dogs anesthetized with sodium pentobarbital (30 mg/kg i.v.)", "procedure": "(§1) In addition, a substantial increase of vertebral flow rate was noticed upon dogs previously anesthetized with sodium pentobarbital (30 mg/kg i.v.). More particularly a does of 5.5 mg/kg i.v. of N-ethylchanodesethylapovincamine causes a 50 to 100% increase of vertebral flow rate. Said effect on the flow rate is selective, the increase of femoral flow rate being negligible."}, "[3]": {"tested_on": "vertebral flow rate", "test": "Vertebral flow rate in anesthetized dogs", "format": "in vivo", "conditions": "5.5 mg/kg i.v.", "procedure": "as §1"}, "[4]": {"test": "Acute toxicity (LD50, method of Lichtfield and Wilcoxon)", "conditions": "mouse, in vivo, mice", "procedure": "The compounds of the invention were administered by intragastric or by intravenous route to Charles River stock mice. The lethal doses for 50% (LD50) were determined graphically according to the method of Lichtfield and Wilcoxon (J.Pharmacol.Exp. Therap. […], 96, 99)."}}}
{"molecule": "CCN1CCc2c3n(c4ccccc24)C(C(=O)OC)=CCC31", "note": "(stereo not drawn) [N-ethylchanodesethylapovincamine]", "values": [{"measurement": "ED50", "setting": "[1]; Mus musculus, po, p.o. 30 minutes before the experiment, 190 mm Hg, corresponding to 5.25% oxygen, read-out: ED50 (dose which provides a 50% increase of the average survival time)", "value": 225, "unit": "mg/kg"}, {"measurement": "LD50/ED50", "setting": "[1]; p.o.", "value": 5}, {"measurement": "increase of femoral flow rate", "setting": "[2]", "value": "negligible"}, {"measurement": "effect on the flow rate (vertebral versus femoral)", "setting": "[3]", "value": "selective"}, {"measurement": "LD50", "setting": "[4]; iv", "value": 55, "unit": "mg/kg"}, {"measurement": "LD50", "setting": "[4]; po, p.o. (intragastric)", "value": 1120, "unit": "mg/kg"}]}
